Assays:
Type in all cases: biochemical
[1] = target: T1, human liver microsome CYP2E1 (Homo sapiens, UniProt P05181); test: Determination of IC50 for a CYP2E1 inhibitory effect (CZX probe, mixed liver microsome); conditions: for inhibitory effect on CYP2E1 (in words): in vitro, method of Example 8; for IC50: mixed liver microsome of healthy individuals 0.3 mg/mL, 62.5 μM CZX, 1 mM NADPH, 30 min, read-out: IC50 for 2E1 inhibition
T1 construct: metabolic activity of a mixed liver microsome CYP2E1 of a healthy individual; from tissue; host or cells: mixed (pooled) human liver microsomes of healthy individuals
Procedure: CZX was used as a probe substrate to detect an inhibitory effect of an inhibitor to be tested on the metabolic activity of a mixed liver microsome CYP2E1 of a healthy individual (IC50: half inhibition concentration; Ki: inhibition constant; the smaller the IC50 and the smaller the Ki, the higher the inhibition intensity of the inhibitor), thereby determining an inhibitory effect of the inhibitor to be tested on the human liver microsome CYP2E1.
An incubation system in a total volume of 100 μL was adopted, including a substrate, an inhibitor of different concentrations, a liver microsomal protein, and phosphate-buffered saline (PBS). The incubation system was pre-incubated in a 37° C. water bath for 5 min, reduced coenzyme was added to allow a reaction for 30 min, and then the reaction was terminated in an ice bath. In a specific experiment, a concentration of an inhibitor can be selected as required.
In this example, the incubation system includes 62.5 μM CZX, 100 mM (pH=7.4) PBS, 0.3 mg/mL liver microsomal protein, and 1 mM NADPH.
In this example, the reaction is terminated with 1 mL of ethyl acetate. In other preferred examples, the reaction may also be terminated with 1 mL of methyl tert-butyl ether (MTBE), 1 mL of diethyl ether, or 100 μL of methanol.

[2] = target: T2, CYP2A6 (Homo sapiens, UniProt P11509); test: Determination of selectivity of a CYP2E1 inhibitor: CYP2A6; conditions: mixed human liver microsome, 2.5 μM coumarin probe; read-out: IC50 for 2A6 inhibition
T2 construct: With a mixed liver microsome of a healthy individual as a research object; from tissue; host or cells: mixed (pooled) human liver microsomes of healthy individuals
Description: (§1) With a mixed liver microsome of a healthy individual as a research object, probe drugs CYP1A2, CYP2A6, CYP2B6, CYP2C8, CYP2C9, CYP2C19, CYP2D6, CYP2E1, and CYP3A4 were selected to determine an in vitro inhibitory effect of an inhibitor to be tested on the metabolism of the probe drugs CYP1A2, CYP2A6, CYP2B6, CYP2C8, CYP2C9, CYP2C19, CYP2D6, CYP2E1, and CYP3A4 for the mixed liver microsome of the healthy human, and the selectivity of the inhibitor to be tested for a CYP2E1 inhibitory effect was evaluated.
(§2) The CYP1A2 probe is 6.25 μM to 800 μM phenacetin or 27.5 μM to 12,520 μM caffeine; • the CYP2A6 probe is 0.156 μM to 20 μM coumarin or 12.5 μM to 2,000 μM nicotine; • the CYP2B6 probe is 7.8 μM to 500 μM bupropion or 0.25 mM to 30 mM cyclophosphamide; • the CYP2C8 probe is 2.5 μM to 80 μM paclitaxel or 0.125 μM to 128 μM amodiaquine; • the CYP2C9 probe is 31.25 μM to 2,000 μM tolbutamide or 0.1 μM to 200 μM diclofenac; • the CYP2C19 probe is 3.9 μM to 500 μM omeprazole or 1.95 μM to 1,000 μM mephenytoin; • the CYP2D6 probe is 0.625 μM to 96 μM dextromethorphan or 0.0195 μM to 80 μM propafenone; and • the CYP3A4 probe is 0.39 μM to 50 μM midazolam or 1.98 μM to 1,000 μM testosterone.
(§3) An incubation system in a total volume of 100 μL was adopted, including a substrate, an inhibitor of different concentrations, a liver microsomal protein, and PBS. […]

[3] = target: T3, CYP2C9 (Homo sapiens, UniProt P11712); test: Determination of selectivity of a CYP2E1 inhibitor: CYP2C9; conditions: mixed human liver microsome, 250 μM tolbutamide probe; read-out: IC50 of the inhibition for CYP2C9
T3 construct: With a mixed liver microsome of a healthy individual as a research object; from tissue; host or cells: mixed (pooled) human liver microsomes of healthy individuals
Description: as §1, §2, §3

T1 sequence (P05181 whole entry): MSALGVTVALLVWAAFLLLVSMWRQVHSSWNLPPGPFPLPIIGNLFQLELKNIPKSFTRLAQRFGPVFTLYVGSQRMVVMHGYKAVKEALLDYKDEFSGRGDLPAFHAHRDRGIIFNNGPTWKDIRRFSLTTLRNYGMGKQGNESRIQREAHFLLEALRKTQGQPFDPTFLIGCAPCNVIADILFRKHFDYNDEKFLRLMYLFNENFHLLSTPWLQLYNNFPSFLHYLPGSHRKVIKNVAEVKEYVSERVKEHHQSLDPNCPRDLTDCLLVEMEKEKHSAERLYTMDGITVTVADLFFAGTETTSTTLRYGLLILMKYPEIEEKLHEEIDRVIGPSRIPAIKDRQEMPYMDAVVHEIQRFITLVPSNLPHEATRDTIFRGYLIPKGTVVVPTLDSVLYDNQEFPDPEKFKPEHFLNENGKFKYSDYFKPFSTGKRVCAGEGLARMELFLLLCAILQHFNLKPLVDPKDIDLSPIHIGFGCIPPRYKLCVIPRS
T2 sequence (P11509 whole entry): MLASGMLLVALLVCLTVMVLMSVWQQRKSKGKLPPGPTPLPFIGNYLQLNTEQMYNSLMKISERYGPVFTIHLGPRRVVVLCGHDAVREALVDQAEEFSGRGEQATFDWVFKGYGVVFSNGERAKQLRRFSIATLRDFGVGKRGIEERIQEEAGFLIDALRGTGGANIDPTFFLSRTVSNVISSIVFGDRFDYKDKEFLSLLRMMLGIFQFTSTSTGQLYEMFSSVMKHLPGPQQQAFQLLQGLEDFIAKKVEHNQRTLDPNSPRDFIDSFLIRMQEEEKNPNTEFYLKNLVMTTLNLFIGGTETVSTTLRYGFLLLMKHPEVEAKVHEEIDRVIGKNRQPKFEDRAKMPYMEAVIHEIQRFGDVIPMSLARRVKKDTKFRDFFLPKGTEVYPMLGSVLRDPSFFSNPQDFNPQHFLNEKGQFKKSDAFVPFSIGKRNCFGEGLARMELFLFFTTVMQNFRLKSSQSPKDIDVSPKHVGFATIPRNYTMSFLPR
T3 sequence (P11712 whole entry): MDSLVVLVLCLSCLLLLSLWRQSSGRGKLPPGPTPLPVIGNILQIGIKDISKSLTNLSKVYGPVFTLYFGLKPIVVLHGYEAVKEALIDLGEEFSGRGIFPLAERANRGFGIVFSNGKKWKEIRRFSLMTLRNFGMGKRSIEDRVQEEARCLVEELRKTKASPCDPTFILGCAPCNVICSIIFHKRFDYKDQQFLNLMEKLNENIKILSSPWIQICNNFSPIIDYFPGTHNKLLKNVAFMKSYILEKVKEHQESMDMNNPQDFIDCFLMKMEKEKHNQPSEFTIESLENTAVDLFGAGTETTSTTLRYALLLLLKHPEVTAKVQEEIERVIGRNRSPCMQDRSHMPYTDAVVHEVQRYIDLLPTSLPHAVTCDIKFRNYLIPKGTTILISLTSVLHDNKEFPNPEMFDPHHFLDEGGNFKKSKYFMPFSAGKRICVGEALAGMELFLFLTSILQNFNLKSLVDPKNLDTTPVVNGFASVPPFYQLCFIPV

inhibitory effect on CYP2E1 (in words) [1] | IC50 [1] | IC50 [2] | IC50 [3] | SMILES
significant inhibitory effect | 7.99 µM | 55.6 µM | 1.86 µM | CCc1nc(COC(=O)c2cccn2Cc2ccncc2)cs1 [SMI1]
significant inhibitory effect | 17 µM |  |  | CO/N=C(\C)c1scnc1C [SMI8]
slight inhibitory effect | 115 µM |  |  | COc1cccc(/C=C/C(=O)c2scnc2C)c1 [SMI10]
